From patent US11197862B2, “Methods of preventing toxicity of platinum drugs” (XOMICS BIOPHARMA, INC., priority 2015, dated 2021)
Entries after “also recorded” stand apart in the source; their conditions may differ.

Columns and labels:
[1] = biological target: T1, OCT2 over OCT1, OCT3 and MATE1 (Homo sapiens, UniProt O15244); assay: Inhibition of OCT2-mediated oxaliplatin transport in 100% human serum or HBSS containing 4% BSA (IC50,app); details: human, MDCK-II cells transfected with human transporters, fold higher potency (selectivity) for OCT2 over OCT1, OCT3 and MATE1 in transporting oxaliplatin, from IC50,app of Table 4
T1 sequence (O15244 1-555): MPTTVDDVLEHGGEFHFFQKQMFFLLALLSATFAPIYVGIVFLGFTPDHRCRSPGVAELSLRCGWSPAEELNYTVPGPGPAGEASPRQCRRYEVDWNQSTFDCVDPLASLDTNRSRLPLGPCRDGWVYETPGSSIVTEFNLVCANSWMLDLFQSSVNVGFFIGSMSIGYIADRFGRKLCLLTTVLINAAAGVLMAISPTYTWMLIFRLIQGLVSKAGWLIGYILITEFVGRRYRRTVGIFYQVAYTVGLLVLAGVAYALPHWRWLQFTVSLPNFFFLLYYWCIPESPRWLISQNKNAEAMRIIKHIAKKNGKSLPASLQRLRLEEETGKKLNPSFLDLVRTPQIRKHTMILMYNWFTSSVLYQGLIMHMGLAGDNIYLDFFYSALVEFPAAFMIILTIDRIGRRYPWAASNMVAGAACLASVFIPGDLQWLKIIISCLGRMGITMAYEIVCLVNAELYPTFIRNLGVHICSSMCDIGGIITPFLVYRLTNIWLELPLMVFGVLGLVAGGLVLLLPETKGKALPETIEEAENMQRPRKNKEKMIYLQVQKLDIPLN
Excerpt: (§2) Fully confluent MDCK cell monolayers were transfected with either cDNA plasmids encoding the human transporter to be tested or a GFP control. […] The cells were then washed with ice-cold PBS and lysed with 50:50 acetonitrile:H2O. Intracellular content of the substrate was quantified by LC/MS/MS or a MicroBeta radiometric plate reader.

[2] = test system: Balb/c mice exposed to acute treatment with Oxaliplatin; assay: Cold plate test after a single oxaliplatin administration; format: in vivo, mouse; details: 48 hours after single OXA 3.5 mg/kg iv, DTG 4 mg/kg ip 1 hour before
Experimental: (§1) OXA vehicle, OXA, CPC, DTG, DTG+OXA and CPC+OXA were administered once time. In the group co-administered with OXA and DTG. DTG was injected intraperitoneally 1 hour before the administration of OXA. In the group co-administered with OXA and CPC, CPC was co-administered with OXA intravenously. Mechanical allodynia and cold sensory threshold (dynamic test and cold plate test) were performed 24 and 48 hours after the treatment, respectively, using the methods described in EXAMPLE 15 Plasma Sample Collection

[3] = test system: Balb/c mice exposed to acute treatment with Oxaliplatin; assay: Dynamic test (mechanical pain threshold) after a single oxaliplatin administration; format: in vivo, mouse; details: 24 hours after single OXA 3.5 mg/kg iv, DTG 4 mg/kg ip 1 hour before, CPC 4 mg/kg iv co-administered
Experimental: as §1

[4] = test system: MDCK cells expressing OCT2, MATE1 and MATE2K; assay: LDH cytotoxicity of oxaliplatin in MDCK-II triple-transporter model; details: for effect on oxaliplatin induced cytotoxicity in OCT2 expressing cells: buflomedil 3 and 6 μM, dolutegravir 10 μM, erlotinib 6 μM, cimetidine 6 μM, FIG. 6
Experimental: A triple-transporter model for OCT2(SLC22A2), MATE1(SLC47A1), and MATE2-K(SLC47A2) was created by transfecting fully confluent MDCK-II cell monolayers with DNA mixture containing the plasmids encoding OCT2, MATE1, and MATE-2K at concentrations of 40, 15, and 5 ng/μl, respectively. The OCT2 was expressed on the basolateral cell membrane, and MATE1 and MATE2-K were expressed on the apical side of the cells. […] The apical medium was adjusted to pH 6.7 with 25 mM of 2-(N-morpholino) ethanesulfonic acid (MES).
After removal of the media, a drug-free medium was added in both sides. After incubation 24 hours, the medium was collected, and the lactate dehydrogenase (LDH) activity in the medium was measured using an LDH cytotoxicity assay kit (G-Biosciences. St. Louis, Mo.; or Biochain, Newark, Calif.), according to the manufacturers' instructions. Cytotoxicity was evaluated by measuring the LDH activity in the medium.
Cytotoxicity was tested using the same procedure described above.

HT-29 cells = assay: Anti-proliferation study (SRB assay) in HT-29 cells; details: for effect on anti-tumor potency of gemcitabine in HT-29: buflomedil 6 μM, FIG. 13; for effect on anti-tumor potency of 5-FU in HT-29: buflomedil 6 uM, dolutegravir 3, 6 and 9 μM, FIG. 12
Experimental: The potency was determined by the sulforhodamine B (SRB) assay in 96-well plates. […] Seeding density was 3000 cells/well for both cell lines.

[5] = Published clinical pharmacokinetic data; details: from published Cmax and protein binding
[6] = 14-week toxicity study in monkey, females, PMDA 2012, cited from earlier work
MATE2K = MATE2K (Homo sapiens, UniProt Q86VL8); assay: Inhibition of MATE2K-mediated oxaliplatin transport in human serum or 4% BSA HBSS
MATE2K, sequence (Q86VL8 1-566 isoform Q86VL8-3): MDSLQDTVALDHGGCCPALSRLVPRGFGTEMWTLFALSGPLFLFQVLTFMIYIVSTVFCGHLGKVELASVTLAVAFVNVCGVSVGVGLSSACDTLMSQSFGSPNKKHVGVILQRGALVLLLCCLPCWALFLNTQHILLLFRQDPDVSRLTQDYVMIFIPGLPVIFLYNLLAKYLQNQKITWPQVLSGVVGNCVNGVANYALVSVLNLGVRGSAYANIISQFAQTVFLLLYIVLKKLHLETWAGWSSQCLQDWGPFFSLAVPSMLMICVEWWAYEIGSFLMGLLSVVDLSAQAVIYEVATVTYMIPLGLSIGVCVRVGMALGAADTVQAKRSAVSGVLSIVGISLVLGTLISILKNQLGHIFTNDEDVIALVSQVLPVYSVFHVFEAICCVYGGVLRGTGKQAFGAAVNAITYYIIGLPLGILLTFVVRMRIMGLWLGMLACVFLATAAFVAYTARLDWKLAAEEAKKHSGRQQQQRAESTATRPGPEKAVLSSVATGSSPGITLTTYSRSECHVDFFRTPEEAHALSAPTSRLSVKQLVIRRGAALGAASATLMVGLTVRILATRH
Excerpt: as §2

OCT2 = biological target: T2, OCT2 (Homo sapiens, UniProt O15244); details: OCT2-mediated uptake; ASP+ 5 μM in HBSS; from Kido Y et al. J Med Chem 2011; cited from earlier work
T2 sequence (O15244 1-555): T1 sequence (O15244 1-555)

MATE1 = biological target: T3, MATE1 (Homo sapiens, UniProt Q96FL8); assay: Inhibition of MATE1-mediated oxaliplatin transport in human serum or 4% BSA HBSS
T3 sequence (Q96FL8 1-570): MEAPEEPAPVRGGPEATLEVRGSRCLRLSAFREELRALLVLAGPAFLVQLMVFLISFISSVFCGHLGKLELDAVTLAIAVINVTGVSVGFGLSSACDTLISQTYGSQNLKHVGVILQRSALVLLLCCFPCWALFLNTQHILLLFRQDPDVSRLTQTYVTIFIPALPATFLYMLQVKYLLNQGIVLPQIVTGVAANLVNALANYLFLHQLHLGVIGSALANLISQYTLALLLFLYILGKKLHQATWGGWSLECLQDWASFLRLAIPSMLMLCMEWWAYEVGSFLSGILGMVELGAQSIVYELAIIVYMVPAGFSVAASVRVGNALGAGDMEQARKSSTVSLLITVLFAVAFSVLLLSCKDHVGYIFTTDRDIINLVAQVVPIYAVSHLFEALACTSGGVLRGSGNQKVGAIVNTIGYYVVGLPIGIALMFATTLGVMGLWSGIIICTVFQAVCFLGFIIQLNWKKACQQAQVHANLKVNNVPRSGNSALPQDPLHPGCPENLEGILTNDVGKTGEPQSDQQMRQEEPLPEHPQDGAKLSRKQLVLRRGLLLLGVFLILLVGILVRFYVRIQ
Excerpt: as §2

[7] = test system: male wistar rats treated with cisplatin; assay: Cisplatin nephrotoxicity in Wistar rats (Example 9); format: in vivo, rat; details: co-administration with cisplatin 11 mg/kg IV; 72 hrs post treatment; expected
[8] = test system: cells co-expressing OCT2 and MATE1; assay: Intracellular oxaliplatin content in cells co-expressing OCT2 and MATE1; format: cell-based; details: oxaliplatin 100 μM in 4% BSA HBSS, 90 min
Excerpt: In most naturally occurring cells, uptake transporters co-exist with efflux transporters. It is the interplay between the uptake and efflux transporters that determines the net intracellular accumulation of a substrate. One example is in the proximal tubule epithelial cells in the kidney, where the basolaterally expressed transporters, mainly OCT2, work in concert with the apically expressed MATE1 and MATE2K [5]. […] Cells with single expression of OCT2 or GFP mock were also used as a control.

Row | SMILES | selectivity ratio [1] | cold allodynia, cold plate [2] | cold allodynia, cold plate ([2]; listed as DTG) | Mechanical Pain Threshold (MPT), mechanical hypersensitivity [3] | Mechanical Pain Threshold (MPT), mechanical hypersensitivity ([3]; listed as DTG) | effect on oxaliplatin induced cytotoxicity in OCT2 expressing cells [4] | effect on anti-tumor potency of gemcitabine in HT-29 (HT-29 cells) | effect on anti-tumor potency of 5-FU in HT-29 (HT-29 cells) | Plasma peak unbound concentration Cmax,u [5] | mean plasma Cmax at the NOAEL dose [6] | Cmax ([6]; read-out: mean plasma Cmax at the NOAEL dose) | IC50 (MATE2K) | Inhibition % @ 20 μM (substrate ASP+) (OCT2) | IC50 (MATE1) | serum BUN values [7] | cellular accumulation of oxaliplatin in cells co-expressing OCT2 and MATE1 [8] | IC50 ([4]; Canis lupus familiaris, MDCK, read-out: IC50 for reduction of oxaliplatin-induced cytotoxicity) | reduction of cytotoxicity of 100 μM oxaliplatin ([4]; buflomedil 3-1000 μM, LDH release, FIG. 5)
1 | C[C@@H]1CCO[C@H]2Cn3cc(C(=O)NCc4ccc(F)cc4F)c(=O)c(O)c3C(=O)N12 [Dolutegravir] | ≥ 10 | effective on reducing cold hypersensitivity | protects the animal from cold allodynia | effective on reducing mechanical hypersensitivity | nearly completely alleviated mechanical hypersensitivity | significantly reduced oxaliplatin (OXA) induced cytotoxicity | did not impact the anti-tumor effect of 5-FU and gemcitabine | did not impact the anti-tumor effect of 5-FU and gemcitabine; also recorded: did not affect anti-tumor potency of 5-FU | 0.05 µM | 23500 ng/mL | 54.8 µM | – | – | – | – | – | – | –
2 | Clc1ccc(COC(Cn2ccnc2)c2ccc(Cl)cc2Cl)c(Cl)c1 (centres unmarked) [Miconazole] | – | – | – | – | – | – | – | – | – | – | – | > 100 µM | 91% | > 100 µM | – | – | – | –
3 | COc1cc(OC)c(C(=O)CCCN2CCCC2)c(OC)c1 [Buflomedil, 4-pyrrolidin-1-yl-1-(2,4,6-trimethoxyphenyl)butan-1-one] | > 10 | – | – | – | – | significantly reduced oxaliplatin (OXA) induced cytotoxicity | did not impact the anti-tumor effect of 5-FU and gemcitabine; also recorded: did not affect anti-tumor potency of gemcitabine | did not impact the anti-tumor effect of 5-FU and gemcitabine; also recorded: did not affect anti-tumor potency of 5-FU | 2.04 µM | – | – | 84 ± 23.1 µM | 104% | 32.7 ± 5.4 µM | lowers the BUN values | reduced cellular accumulation of oxaliplatin | 6 µM | reduced cytotoxicity of 100 μM Oxaliplatin in OCT2-expressing cells in a dose-dependent fashion
